Measured values as given in US20240385195A1, “PEPTIDE FOR DETECTING CA125 AND USE THEREOF” (Ajou University Industry-Academic Cooperation Foundation, priority 2022, published 2024).
No end group written: not given here.

How the values were obtained:
CA125 protein = assay: ELISA assay of binding affinity and specificity; parameters: species or system human; conditions: HRP-conjugated M13 antibody, TMB, FIG. 1
Method: (§1) In order to evaluate the binding affinity and specificity of the discovered SEQ ID NO: 1 peptide to the CA125 protein, and the binding affinity and specificity of the SEQ ID NO: 2 peptide to HE4, ELISA assay was performed according to the manufacturer's instructions using CA125 protein (R&D Systems Inc, MN, USA), HE4 protein (Sinobiological, PA, USA), HRP-conjugated M13 antibody (Sinobiological, PA, USA), and TMB solution (Thermo Scientific, MA, USA). In addition, to measure the binding affinity Kd (dissociation constant), the discovered peptides of SEQ ID NO: 1 and SEQ ID NO: 2 were synthesized (Biostem, Suwon, Korea), CA125 protein and HE4 protein were each fluorescently labeled using Protein Labeling kit RED-NHS 2nd Generation (NanoTemper Technologies, Munich, Germany). Afterwards, the binding affinity between peptide and protein was measured using Monolith NT.115 (NanoTemper Technologies, Munich, Germany) according to the manufacturer's instructions.

HE4 protein = biological target: T1, HE4 protein (Homo sapiens, UniProt Q14508); assay: ELISA assay of binding affinity and specificity; conditions: HRP-conjugated M13 antibody, TMB, FIG. 1
T1 construct: purchased Sinobiological, PA, USA
T1 sequence (Q14508 31-124): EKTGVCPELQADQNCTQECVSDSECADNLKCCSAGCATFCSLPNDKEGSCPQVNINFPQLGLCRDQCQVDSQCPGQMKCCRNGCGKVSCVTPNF
Method: as §1

specific binding to CA125 protein (CA125 protein)	specific binding to HE4 protein (HE4 protein)	Substance
specifically bound to the CA125 protein	–	HTHGAARVPDHR [SEQ ID NO: 1]
–	specifically bound to the HE4 protein	LGSKPIN [SEQ ID NO: 2, LGSKPIN]
